From patent US11013724B2, “Glutaminase inhibitors” (University of Pittsburgh—Of the Commonwealth System of …, priority 2014, dated 2021)

Assays:
MDA-MB 231 cancer cells = experiment: MDA-MB-231 cell proliferation assay (cell counting on 6th day); type: cell-based; conditions: relative to prior art compound BPTES
Procedure: (§1) Cell culture media and serum were obtained from Invitrogen (Carlsbad, Calif.). All other reagents were obtained from Fisher Scientific (Pittsburgh, Pa.) or Sigma Aldrich (St. Louis, Mo.). MDA-MB-231 cells were purchased from ATCC (Manassas, Va.), and were cultured at 35° C., in 5% CO2, using RPMI-1640 media supplemented with 10% FBS, unless otherwise specified. Recombinant GAC was expressed in E. coli and purified. Briefly, human GAC (residues 72-603) was cloned into the pET28a vector from Novagen, and was expressed as a His6-tagged fusion protein in E. coli. It was then purified by ion exchange and size exclusion chromatography.
Cell assays: MDA-MB-231 cells were cultured in RPMI-1640 media supplemented with 10% FBS. Prior to initiating the assay, cells that were 70-80% confluent were trypsinized. These cells were diluted, counted, and dispensed into 12-well culture plates at a density of 2×10^4 cells per well. Each well was then brought to 1 mL of media, total. The cells were allowed to adhere to the wells overnight, at which point they were recounted (day 0 of the assay). […] Cells were counted on the 6th day of culture. […] Cells were then counted on a hemocytometer, with 3 readings taken and averaged per sample. […] Dose curves and IC50 values were determined in Sigmaplot, using the built-in four parameter logistic function.

[1] = biological target: recombinant GAC (human GAC, residues 72-603); experiment: GAC enzyme assay (biochemical assay, glutamate dehydrogenase-coupled, absorbance at 340 nm); conditions: relative to prior art compound BPTES
Procedure: as §1
Biochemical assays: The GAC inhibitors were solvated in DMSO. Assay vessels were charged with 1 μL of inhibitor in order to effect the reported final concentration. To each vessel was added 95 μL of an aqueous solution containing 48 mM Tris-acetate (pH 8.6), 21 mM glutamine, and 50 nM recombinant GAC. Fifteen μL of either water or 1 M potassium phosphate, pH 8.2, were added to the mixture to begin the reaction. […] The absorbance of both the second and third reactions was recorded at […]. The third reaction was treated as a baseline, and its absorbance was subtracted from that of the second reaction prior to further data analysis. […] Dose curves and IC50 values were determined in Sigmaplot, using the built-in four parameter logistic function.

O=C(Cc1ccccc1)Nc1nnc(OC2CCN(c3nnc(NC(=O)Cc4ccccc4)s3)CC2)s1 [UPGL00019, 2-Phenyl-N-{5-[1-(5-phenylacetylamino-[1,3,4]thiadiazol-2-yl)-piperidin-4-yloxy]-[1,3,4]thiadiazol-2-yl}-acetamide]
IC50 in inhibiting the proliferation of MDA-MB 231 cancer cells in vitro compared to BPTES (MDA-MB 231 cancer cells): better than BPTES by 2 orders of magnitude
IC50 in the GAC enzyme assay compared directly to BPTES [1]: one order of magnitude better
